From EPA's ToxRefDB 2

Legend:
[1] = test system: mouse; conditions: Sub-acute dermal toxicity, b6c3f1, Topical, dose end: 2 week, group: systemic, systemic / pathology gross / skin / [other] + systemic / pathology gross / skin / thickened + systemic / pathology gross / skin / ulcer + …
[2] = test system: dog; conditions: Subchronic oral toxicity in nonrodent, beagle, Feed, dose end: 90 day, group: systemic, systemic / organ weight / ovary / relative to body weight + systemic / organ weight / thyroid gland / relative to body weight
[3] = test system: rat; conditions: Sub-acute dermal toxicity, fischer, Topical, dose end: 2 week, group: systemic, systemic / pathology microscopic / skin / hyperkeratosis + systemic / pathology microscopic / skin / hyperplasia + systemic / pathology …
[4] = test system: mouse; conditions: Subchronic oral toxicity in rodents, b6c3f1, Dermal, Topical, dose end: 14 week, group: systemic
[5] = test system: dog; conditions: Subchronic oral toxicity in nonrodent, beagle, Feed, dose end: 90 day, group: systemic
[6] = test system: rat; conditions: Sub-acute dermal toxicity, wistar, Topical, dose end: 21 day, group: systemic, systemic / in life observation / clinical signs / erythema + systemic / in life observation / clinical signs / skin ulceration + systemic / …
[7] = test system: mouse; conditions: Carcinogenicity; b6c3f1; Dermal; Topical; dose end: 105 week; group: systemic; systemic / pathology microscopic / skin / hyperplasia + systemic / pathology microscopic / skin / inflammation
[8] = test system: rat; conditions: Subchronic dermal toxicity, fischer, Topical, dose end: 14 week, group: systemic
[9] = test system: dog; conditions: Other (NonGuideline or Guideline Not Listed); beagle; Oral; Feed; dose end: 13 week; group: cannot be grouped; systemic / clinical chemistry / thyroxine (t4) / thyroxine (t4), total + systemic / clinical chemistry / triiodothyronine (t3) / …
[10] = test system: rat; conditions: Other (NonGuideline or Guideline Not Listed), Oral, Feed, dose end: 111 PND, group: cannot be grouped
[11] = test system: rat; conditions: Carcinogenicity, fischer, Dermal, Topical, dose end: 105 week, group: systemic
[12] = test system: rat; conditions: Prenatal developmental toxicity study, sprague dawley, Oral, Gavage/Intubation, dose end: 15 GD
[13] = test system: mouse; conditions: Carcinogenicity, b6c3f1, Oral, Gavage/Intubation, dose end: 103 week, group: systemic
[14] = test system: rat; conditions: Carcinogenicity; fischer; Oral; Gavage/Intubation; dose end: 103 week; group: systemic; systemic / in life observation / body weight / body weight
[15] = test system: rat; conditions: Subchronic oral toxicity in rodents, fischer, Gavage/Intubation, dose end: 13 week, group: systemic
[16] = test system: mouse; conditions: Subchronic oral toxicity in rodents, b6c3f1, Gavage/Intubation, dose end: 13 week, group: systemic, systemic / in life observation / body weight / body weight
[17] = test system: rat; conditions: Sub-acute repeat dose toxicity, Oral, Gavage/Intubation, dose end: 14 day, group: systemic
[18] = test system: rat; conditions: Sub-acute repeat dose toxicity, sprague dawley, Oral, Gavage/Intubation, dose end: 14 day, group: systemic
[19] = test system: dog; conditions: Sub-acute repeat dose toxicity; beagle; Oral; Gavage/Intubation; dose end: 14 day; group: systemic; systemic / in life observation / clinical signs / abnormal feces
[20] = systemic / organ weight / lung / absolute + systemic / organ weight / lung / relative to body weight
[21] = systemic / organ weight / lung / absolute + systemic / organ weight / lung / relative to body weight + systemic / organ weight / liver / …
[22] = systemic / pathology microscopic / kidney / pigmentation + systemic / pathology microscopic / spleen / hematopoietic cell proliferation
[23] = systemic / pathology microscopic / skin / hyperkeratosis
[24] = systemic / pathology microscopic / skin / hyperkeratosis + systemic / pathology microscopic / skin / hyperplasia + systemic / pathology …
[25] = systemic / in life observation / body weight / body weight gain + systemic / in life observation / food consumption / food consumption
[26] = systemic / in life observation / body weight / body weight gain + systemic / in life observation / food consumption / food consumption + …
[27] = systemic / pathology gross / skin / [other] + systemic / pathology microscopic / skin / hyperkeratosis + systemic / pathology microscopic / …
[28] = systemic / pathology microscopic / skin / hyperkeratosis + systemic / pathology microscopic / skin / inflammation + systemic / pathology …
[29] = group: developmental, developmental / developmental malformation / [other] / [other]
[30] = group: maternal, systemic / in life observation / body weight / body weight gain + reproductive / reproductive performance / resorptions / resorptions
[31] = systemic / pathology microscopic / liver / hypertrophy + systemic / pathology microscopic / liver / necrosis + systemic / pathology …
[32] = systemic / in life observation / body weight / body weight + systemic / in life observation / mortality / mortality + systemic / pathology …
[33] = systemic / in life observation / clinical signs / salivation
[34] = systemic / in life observation / clinical signs / urine staining - perineum + systemic / in life observation / clinical signs / salivation
[35] = systemic / clinical chemistry / glucose / glucose + systemic / clinical chemistry / urea nitrogen / urea nitrogen + systemic / clinical …

For `N#CCCC(Br)(C#N)CBr` (stereo not drawn) [1,2-Dibromo-2,4-dicyanobutane], the LEL [1] was 75 mg/kg/day, the LOAEL [1] was 75 mg/kg/day and the NEL [1] was < 75 mg/kg/day. For the same molecule, the NOAEL [1] was < 75 mg/kg/day, the LEL [2] was 4.17 mg/kg/day and the LOAEL [2] was 4.17 mg/kg/day. For the same molecule, the NEL [2] was < 4.17 mg/kg/day, the NOAEL [2] was < 4.17 mg/kg/day and the LEL [3] was 37.5 mg/kg/day. The LOAEL [3] was 37.5 mg/kg/day, the NEL [3] was < 37.5 mg/kg/day and the NOAEL [3] was < 37.5 mg/kg/day. The LEL [4, 20] was 0.2 mg/kg/day, the NEL [4, 20] was < 0.2 mg/kg/day and the LOAEL [4, 21] was > 18 mg/kg/day. For the same molecule, the NOAEL [4, 21] was ≥ 18 mg/kg/day, the LOAEL ([5]; systemic / in life observation / clinical signs / defecation (diarrhea) + systemic / in life observation / clinical signs / emesis) was 3.11 mg/kg/day and the NOAEL ([5]; systemic / in life observation / clinical signs / defecation (diarrhea) + systemic / in life observation / clinical signs / emesis + …) was 0.331 mg/kg/day. The LEL [5, 22] was 0.288 mg/kg/day, the NEL [5, 22] was < 0.288 mg/kg/day and the LEL [6] was 1000 mg/kg/day. For the same molecule, the LOAEL [6] was 1000 mg/kg/day, the NEL [6] was < 1000 mg/kg/day and the NOAEL [6] was < 1000 mg/kg/day. For the same molecule, the LEL [7] was 0.6 mg/kg/day, the LOAEL [7] was 0.6 mg/kg/day and the NEL [7] was < 0.6 mg/kg/day. For the same molecule, the NOAEL [7] was < 0.6 mg/kg/day, the LEL [8, 23] was 0.2 mg/kg/day and the NEL [8, 23] was < 0.2 mg/kg/day. The LOAEL [8, 24] was 2 mg/kg/day, the NOAEL [8, 24] was 0.6 mg/kg/day and the LEL [9] was 4.17 mg/kg/day. For the same molecule, the LOAEL [9] was 4.17 mg/kg/day, the NEL [9] was < 4.17 mg/kg/day and the NOAEL [9] was < 4.17 mg/kg/day. The NEL [10, 25] was 4.17 mg/kg/day, the NOAEL [10, 25] was 4.17 mg/kg/day and the LEL [10, 26] was 25 mg/kg/day. It also gave an LOAEL [10, 26] of 25 mg/kg/day, an LOAEL [11, 27] of 6 mg/kg/day and an NOAEL [11, 27] of 2 mg/kg/day. The LEL [11, 28] was 2 mg/kg/day, the NEL [11, 28] was < 2 mg/kg/day and the LEL [12, 29] was 100 mg/kg/day. For the same molecule, the LOAEL [12, 29] was 100 mg/kg/day, the NEL [12, 29] was 25 mg/kg/day and the NOAEL [12, 29] was 25 mg/kg/day. For the same molecule, the LEL [12, 30] was 100 mg/kg/day, the LOAEL [12, 30] was 100 mg/kg/day and the NEL [12, 30] was 25 mg/kg/day. It also gave an NOAEL [12, 30] of 25 mg/kg/day.
In the case of `CC(Cl)CCl` (stereo not drawn) [1,2-Dichloropropane], the LOAEL ([13]; systemic / pathology microscopic / liver / hypertrophy + systemic / pathology microscopic / liver / necrosis) is reported as 250 mg/kg/day, the LEL [13, 31] is reported as 125 mg/kg/day and the NEL [13, 31] is reported as < 125 mg/kg/day. The NOAEL [13, 31] was 125 mg/kg/day, the LEL [14] was 62 mg/kg/day and the LOAEL [14] was 125 mg/kg/day. For the same molecule, the NEL [14] was < 62 mg/kg/day, the LEL ([15]; systemic / in life observation / body weight / body weight + systemic / in life observation / mortality / mortality) was 500 mg/kg/day and the LOAEL [15, 32] was > 1000 mg/kg/day. For the same molecule, the NEL [15, 32] was 250 mg/kg/day, the NOAEL [15, 32] was ≥ 1000 mg/kg/day and the LEL [16] was 30 mg/kg/day. The LOAEL [16] was 500 mg/kg/day, the NEL [16] was < 30 mg/kg/day and the NOAEL [16] was 250 mg/kg/day.
In the case of `O=C(O)CCN(C1(C(=O)NO)CCCC1)S(=O)(=O)c1ccc(Oc2ccc(F)cc2)cc1`, the LEL [17, 33] is reported as 300 mg/kg/day, the NEL [17, 33] is reported as < 300 mg/kg/day and the LOAEL [17, 34] is reported as > 500 mg/kg/day. For the same molecule, the NOAEL [17, 34] was ≥ 500 mg/kg/day, the LEL ([18]; systemic / clinical chemistry / glucose / glucose + systemic / clinical chemistry / urea nitrogen / urea nitrogen) was 150 mg/kg/day and the LOAEL [18, 35] was > 500 mg/kg/day. The NOAEL [18, 35] was ≥ 500 mg/kg/day, the LEL [19] was 250 mg/kg/day and the LOAEL [19] was > 250 mg/kg/day. For the same molecule, the NEL [19] was 50 mg/kg/day and the NOAEL [19] was ≥ 250 mg/kg/day.
